How the values were obtained:
rumen ciliate protozoa [1] = test: In vitro activity of defaunation compounds against rumen ciliate protozoa; type: cell-based; conditions: 39° C., anaerobic, 3 hours, tested at 50, 150, 250 and 500 ppm
Experimental: Compounds of Table 1 were tested for their toxicity against rumen ciliate protozoa by firstly isolating protozoa from rumen liquor collected from faunated animals. The rumen liquor was then centrifuged at 500 g for five minutes and the supernatant discarded. The protozoal-rich sediment was then reconstituted in McDougal's artificial saliva. Residual bacteria were suppressed by using a combination of two antibiotics at low concentration. Nitrogen and energy substrate was optimized for the protozoal preparation. At all times the protozoal preparation was maintained at 39° C. and kept anaerobic.
Sixty milligrams of each the compounds of Table 1 were dissolved in 1.2 ml of dimethyl sulphoxide and dispersed in triplicate to achieve a final concentration of 50, 150, 250 and 500 ppm. Ten milliliters of protozoal preparation was then added to each tube. After every second compound, control tubes were included which contained everything except for compound. The tubes, to which a 5 ml glass syringe was attached, were then incubated for 3 hours in a water bath at 39° C. The production of gas causes the syringe plunger to be displaced.
At the end of the incubation period, the volume of gas produced was recorded and the viability of the protozoa assessed visually using a microscope. The toxicity of the compounds to protozoa was assessed from both the reduction in gas produced relative to the control and by direct observation of the protozoa for movement of cilia.

rumen bacteria [2] = test: In vitro bacterial gas inhibition; type: cell-based; conditions: at the concentration known to kill protozoa
Experimental: Compounds of Table 1 were also tested for toxicity bacteria. This involved removing protozoa from rumen liquor by centrifugation at 2,000 g for 5 minutes and collecting the bacterial rich supernatant. Nitrogen and energy substrate was added to the bacterial preparation which was then dispensed in triplicate 10 ml volumes over the same range of compound concentrations (50, 150, 250 and 500 ppm.) referred to in Example 2. Control tubes were placed after every second compound to enable the inhibition of gas resulting from the compound to be assessed. […] It can be seen that these compounds are selective in their mode of action, in that they are more toxic to protozoa than bacteria.

[3] = Effect of defaunation compounds on feed intake of sheep; type: in vivo; conditions: after dosing vs pre-dosing intake
Experimental: Sheep were allowed a minimum of three weeks to adapt to their ration of 900 g of oaten chaff and 100 g of Lucerne chaff. The pre-dosing level of intake for each animal was established from the mean of five days intake immediately prior to dosing. Any effects of administering the compound on feed intake was then determined by measuring the level of feed intake after dosing.
The criteria of classifying the effect on food intake are shown below.
Poor--greater than 50% reduction in feed intake during the first week after dosing.
Fair--greater than 50% reduction in feed intake on the day following dosing but less then 50% reduction one week after dosing.
OK--transient drop in feed intake which is less than 50% on the day after dosing.
Good--No reduction in feed intake following dosing.

rumen bacteria [4] = test: Bacterial viability in sheep after administering defaunation compounds; type: in vivo; conditions: gas production one week after dosing vs pre-dosing
Experimental: In order to establish what effect the compounds had on the viability of rumen bacteria, a sample of rumen liquor was collected prior to dosing of the compound. The sample was withdrawn under vacuum using a pre-warmed tube inserted into the rumen through a rumen cannula. The sample was collected in a pre-warmed (39° C.) flask, gassed with carbon dioxide and covered. Two-pre-warmed 30 ml centrifuge tubes were then filled with well mixed rumen liquor and centrifuged at 2000 rpm for 5 minutes. Half the volume of each tube was then poured into another pre-warmed tube without disturbing the sediment. Three lots of 10 ml of this rumen liquor were then pipetted into 15 ml tubes which contained 10 μL of urea solution (40% w/v and 300 μL of glucose solution (50% w/v). The urea and glucose acted as substrate for the bacteria. The tubes were then gassed with carbon dioxide, stoppered and placed in a water bath at 39° C. After 10 minutes a 5 ml glass syringe was secured into the stoppers (through which a hypodermic needle had been inserted) and the gas collected for five hours and recorded.
This bacterial viability measure was then repeated one week after dosing with each of the compounds referred to in Table 1. Defaunation compositions were prepared according to the method of Example 1. The amount of gas produced was then compared with the pre-dosing level. The criterion for classifying post-dosing bacterial viability is shown below:
Poor--reduction in post-dosing gas production relative to pre-dosing levels.
OK--post-dosing gas production the same as pre-dosing levels.
Good--increase in post-dosing gas production relative to pre-dosing levels.

mice = test: Mouse safety assessment; type: in vivo; conditions: oral gavage, 830, 415 and 217 mg/kg, observed for 2 days
Experimental: Compounds of Table 1 chosen for testing in sheep were first tested in mice for signs of toxicity. Because sheep are approximately 5 times more sensitive than mice to compounds dosed orally, the dose rates applied to mice were 5 times greater than the target dose rate of 500 ppm. in rumen liquor (83 mg/kg live weight) used for sheep. Each compound was screened at three different dose levels, high (830 mg/kg), medium (415 mg/kg) and low (217 mg/kg).
252 mg of compound was used for dilution into a high medium and low dose rate. 252 mg of compound was mixed with 3 ml of G1284 solution (4% w/v ethoxylated castor oil and 0.05% w/v simethicone), to form the high dose composition. The medium dose composition was formed by diluting 1.5 ml of the high dose with 1.5 ml of G1284 solution. The low dose composition was formed by diluting 1.5 ml of the medium dose with 1.5 ml of G1284 solution. Before the high dose could be diluted it was first manually ball milled in an effort to produce a fine suspension of the compound.
All mice were weighed before dosing to calculate the appropriate dose rate. The calculation for dose rate was: [formula]
Each mouse was dosed using the Gavage method. With this method the mouse is dosed orally by way of an angled hypodermic needle (18 g) with a smooth spherical end. It is gently placed down the esophagus. All care must be taken not to force the needle and injure the esophagus or dose into the lungs.
Observations were made at 10, 30, 60 and 120 minutes after dosing, then every 1 or 2 hours for the first 6 hours.
Mice were usually observed for 2 days.
Typically, few compounds fell within the poor classification. The majority of compounds tested were either in the fair or good classification.

rumen ciliate protozoa [5] = test: Protozoal reduction in sheep; type: in vivo; parameters: concentration or dose not given beside the values; conditions: one week after dosing, relative to predosing numbers
Experimental: Defaunation compositions were prepared according to the method of Example 1.
Prior to dosing of the compound, a sample of rumen liquor (200 ml) was withdrawn to establish basal numbers of protozoa.
The sample was collected using a stomach tube, inserted into the rumen via a rumen cannula (fistulated animals) or per esophagus (intact animals). After straining the sample was well mixed using a magnetic stirrer and a 0.5 ml sample was withdrawn and added to 49.5 ml of a crystal violet stain. Protozoa were counted using a microscope and a Hawksley counting chamber.
One week after administering the compound, another rumen liquor sample was collected (as described above) and examined for the presence of protozoa. Where rumen ciliate protozoa were undetectable, a reduction or inhibition value of 100% was recorded. In general, most compounds expressed a strong inhibitory effect on protozoal populations.

Clc1nc(Cl)nc(Nc2ccccc2)n1 [Compound 1]
Conc Required to Kill all Protozoa (rumen ciliate protozoa [1]): 250 ppm
Bact. Gas Inhibition at the conc. required to kill protozoa (rumen bacteria [2]): 43

Clc1ccc(Nc2nc(Cl)nc(Cl)n2)cc1 [Compound 2]
Feed Intake [3]: Fair
Bacterial Viability (rumen bacteria [4]): Good
Mouse Safety Assessment (mice): Poor (death at 840 mg/kg)
Conc Required to Kill all Protozoa (rumen ciliate protozoa [1]): 150 ppm
Protozoal Reduction (rumen ciliate protozoa [5]): 100%
Bact. Gas Inhibition at the conc. required to kill protozoa (rumen bacteria [2]): 38

Clc1nc(Cl)nc(Nc2ccc(Br)cc2)n1 [Compound 3]
Feed Intake [3]: Good
Bacterial Viability (rumen bacteria [4]): Good
Conc Required to Kill all Protozoa (rumen ciliate protozoa [1]): 250 ppm
Protozoal Reduction (rumen ciliate protozoa [5]): 100%
Bact. Gas Inhibition at the conc. required to kill protozoa (rumen bacteria [2]): 45

Oc1ccc(Nc2nc(Cl)nc(Cl)n2)cc1 [Compound 4]
Feed Intake [3]: Poor (greater than 50% reduction between day 2 to day 8)
Bacterial Viability (rumen bacteria [4]): Poor
Conc Required to Kill all Protozoa (rumen ciliate protozoa [1]): 250 ppm
Protozoal Reduction (rumen ciliate protozoa [5]): 100%
Bact. Gas Inhibition at the conc. required to kill protozoa (rumen bacteria [2]): 43

COc1ccc(Nc2nc(Cl)nc(Cl)n2)cc1 [Compound 5]
Feed Intake [3]: Fair
Bacterial Viability (rumen bacteria [4]): Poor
Mouse Safety Assessment (mice): Good
Conc Required to Kill all Protozoa (rumen ciliate protozoa [1]): 250 ppm
Protozoal Reduction (rumen ciliate protozoa [5]): 100%
Bact. Gas Inhibition at the conc. required to kill protozoa (rumen bacteria [2]): 33

Cc1ccc(Nc2nc(Cl)nc(Cl)n2)cc1 [Compound 6]
Feed Intake [3]: Okay (transient drop, less than 50% at day 2)
Bacterial Viability (rumen bacteria [4]): Okay
Mouse Safety Assessment (mice): Poor (death at 840 mg/kg)
Conc Required to Kill all Protozoa (rumen ciliate protozoa [1]): 150 ppm
Protozoal Reduction (rumen ciliate protozoa [5]): 100%
Bact. Gas Inhibition at the conc. required to kill protozoa (rumen bacteria [2]): 40

Clc1nc(Cl)nc(Nc2ccc(Cl)c(Cl)c2)n1 [Compound 7]
Feed Intake [3]: Poor (greater than 50% reduction between day 2 to day 8)
Bacterial Viability (rumen bacteria [4]): Poor
Mouse Safety Assessment (mice): Fair (>2 mice sick)
Conc Required to Kill all Protozoa (rumen ciliate protozoa [1]): 250 ppm
Protozoal Reduction (rumen ciliate protozoa [5]): 100%
Bact. Gas Inhibition at the conc. required to kill protozoa (rumen bacteria [2]): 30

Cc1ccccc1Nc1nc(Cl)nc(Cl)n1 [Compound 8]
Feed Intake [3]: Okay (transient drop, less than 50% at day 2)
Bacterial Viability (rumen bacteria [4]): Okay
Mouse Safety Assessment (mice): Good
Conc Required to Kill all Protozoa (rumen ciliate protozoa [1]): 250 ppm
Protozoal Reduction (rumen ciliate protozoa [5]): 96%
Bact. Gas Inhibition at the conc. required to kill protozoa (rumen bacteria [2]): 43

Cc1cc(C)c(Nc2nc(Cl)nc(Cl)n2)c(C)c1 [Compound 9]
Feed Intake [3]: Good
Bacterial Viability (rumen bacteria [4]): Good
Mouse Safety Assessment (mice): Good
Conc Required to Kill all Protozoa (rumen ciliate protozoa [1]): 250 ppm
Protozoal Reduction (rumen ciliate protozoa [5]): 88%
Bact. Gas Inhibition at the conc. required to kill protozoa (rumen bacteria [2]): 41

Cc1ccc(Nc2nc(Cl)nc(Cl)n2)cc1C [Compound 10]
Feed Intake [3]: Good
Bacterial Viability (rumen bacteria [4]): Good
Mouse Safety Assessment (mice): Fair (>2 mice sick)
Conc Required to Kill all Protozoa (rumen ciliate protozoa [1]): 250 ppm
Protozoal Reduction (rumen ciliate protozoa [5]): 100%
Bact. Gas Inhibition at the conc. required to kill protozoa (rumen bacteria [2]): 55

Clc1nc(Cl)nc(Nc2ccc(I)cc2)n1 [Compound 11]
Feed Intake [3]: Good
Bacterial Viability (rumen bacteria [4]): Okay
Mouse Safety Assessment (mice): Fair (>2 mice sick)
Conc Required to Kill all Protozoa (rumen ciliate protozoa [1]): 250 ppm
Protozoal Reduction (rumen ciliate protozoa [5]): 84%
Bact. Gas Inhibition at the conc. required to kill protozoa (rumen bacteria [2]): 71

Cc1ccc(N(C)c2nc(Cl)nc(Cl)n2)c(C)c1 [Compound 12]
Conc Required to Kill all Protozoa (rumen ciliate protozoa [1]): 250 ppm
Bact. Gas Inhibition at the conc. required to kill protozoa (rumen bacteria [2]): 35

COc1ccc(Nc2nc(Cl)nc(Cl)n2)c(C)c1 [Compound 13]
Conc Required to Kill all Protozoa (rumen ciliate protozoa [1]): 250 ppm
Bact. Gas Inhibition at the conc. required to kill protozoa (rumen bacteria [2]): 48

CN(c1ccccc1)c1nc(Cl)nc(Cl)n1 [Compound 14]
Conc Required to Kill all Protozoa (rumen ciliate protozoa [1]): 250 ppm
Bact. Gas Inhibition at the conc. required to kill protozoa (rumen bacteria [2]): 38

CSc1cccc(Nc2nc(Cl)nc(Cl)n2)c1 [Compound 15]
Feed Intake [3]: Good
Bacterial Viability (rumen bacteria [4]): Good
Mouse Safety Assessment (mice): Fair (>2 mice sick)
Conc Required to Kill all Protozoa (rumen ciliate protozoa [1]): 150 ppm
Protozoal Reduction (rumen ciliate protozoa [5]): 100%
Bact. Gas Inhibition at the conc. required to kill protozoa (rumen bacteria [2]): 52

O=[N+]([O-])c1cccc(Nc2nc(Cl)nc(Cl)n2)c1 [Compound 16]
Feed Intake [3]: Good
Bacterial Viability (rumen bacteria [4]): Good
Conc Required to Kill all Protozoa (rumen ciliate protozoa [1]): 250 ppm
Protozoal Reduction (rumen ciliate protozoa [5]): 72%
Bact. Gas Inhibition at the conc. required to kill protozoa (rumen bacteria [2]): 47

COc1ccc(Nc2nc(Cl)nc(Cl)n2)cc1OC [Compound 17]
Feed Intake [3]: Fair
Bacterial Viability (rumen bacteria [4]): Okay
Mouse Safety Assessment (mice): Good
Conc Required to Kill all Protozoa (rumen ciliate protozoa [1]): 250 ppm
Protozoal Reduction (rumen ciliate protozoa [5]): 98%
Bact. Gas Inhibition at the conc. required to kill protozoa (rumen bacteria [2]): 43

CSc1ccc(Nc2nc(Cl)nc(Cl)n2)cc1 [Compound 18]
Feed Intake [3]: Okay (transient drop, less than 50% at day 2)
Bacterial Viability (rumen bacteria [4]): Okay
Mouse Safety Assessment (mice): Fair (>2 mice sick)
Conc Required to Kill all Protozoa (rumen ciliate protozoa [1]): 150 ppm
Protozoal Reduction (rumen ciliate protozoa [5]): 100%
Bact. Gas Inhibition at the conc. required to kill protozoa (rumen bacteria [2]): 53

Clc1nc(Cl)nc(Nc2ccc(-c3ccccc3)cc2)n1 [Compound 25]
Conc Required to Kill all Protozoa (rumen ciliate protozoa [1]): 150 ppm
Bact. Gas Inhibition at the conc. required to kill protozoa (rumen bacteria [2]): 53

Cc1ccc(Nc2nc(Cl)nc(Cl)n2)cc1[N+](=O)[O-] [Compound 26]
Conc Required to Kill all Protozoa (rumen ciliate protozoa [1]): 250 ppm
Bact. Gas Inhibition at the conc. required to kill protozoa (rumen bacteria [2]): 47

COc1ccc(Nc2nc(Cl)nc(Cl)n2)c([N+](=O)[O-])c1 [Compound 31]
Conc Required to Kill all Protozoa (rumen ciliate protozoa [1]): 250 ppm
Bact. Gas Inhibition at the conc. required to kill protozoa (rumen bacteria [2]): 39

Cc1ccc(N(C)c2nc(Cl)nc(Cl)n2)cc1 [Compound 33]
Conc Required to Kill all Protozoa (rumen ciliate protozoa [1]): 250 ppm
Bact. Gas Inhibition at the conc. required to kill protozoa (rumen bacteria [2]): 33

Cc1cc(O)c(C(C)(C)C)cc1Nc1nc(Cl)nc(Cl)n1 [Compound 34]
Conc Required to Kill all Protozoa (rumen ciliate protozoa [1]): 250 ppm
Bact. Gas Inhibition at the conc. required to kill protozoa (rumen bacteria [2]): 81
